Data as given in patent US7732609B2, “5-(arylsulfonyl)-pyrazolopiperidines” (Elan Pharmaceuticals, Inc., priority 2005, dated 2010).

molecular target: T1, gamma-secretase (Homo sapiens, UniProt P49768); assay: Gamma-secretase APP enzyme assay (MBP-C125 Swe cleavage at Aβ40 site, sandwich ELISA); type: biochemical; settings: IMR-32 cell membrane extract as enzyme; MBP-C125swe substrate; 2 h at 37° C; read-out: γAPP
T1 construct: The assay used a partially purified extract of IMR-32 cell membranes as the gamma-secretase enzyme preparation; endogenous in cells; host or cells: IMR-32 cell membranes (partially purified extract)
Text: The gamma-secretase APP enzyme assay was designed to measure the specific proteolytic cleavage of an APP substrate (MBP-C125 Swe fusion protein) at the Aβ40 site. The assay used a partially purified extract of IMR-32 cell membranes as the gamma-secretase enzyme preparation and a recombinant fusion protein containing the C-terminal 125 amino acids of the Swedish variant of the APP (MBP-C125swe) as the substrate. This assay involved two steps beginning with the enzymatic reaction generating a cleavage product that was captured with an immobilized antibody specific for the neo-epitope Aβ40 site. The captured cleavage product was then detected in a sandwich ELISA assay with a biotinylated reporter antibody that is specific to Aβ (17-28). Streptavidin-linked alkaline phosphatase was then added that would generate a fluorescent signal proportional to the amount of cleavage product. This assay was used to discover small molecule inhibitors of gamma-secretase.
Briefly, a 149 mg/ml solution of BIGCHAP detergent was made with water at 42° C. and then rotated for 30 minutes at the same temperature. This warmed solution of BigCHAPS(N,N-Bis(3-D-gluconamidopropyl)cholamide) detergent was used to dissolve Brain Extract Type-V (lipid containing a minimum of 40% phosphatidylethanolamine) from Sigma (St. Louis, Mo.) to a concentration of 8 mg/ml. This solution containing BigCHAPS and lipid at 8 mg/ml is then diluted to 0.53 mg/ml lipid with a pre-warmed solution of Hepes and sodium chloride. This final solution containing Hepes buffer, sodium chloride, BigCHAPS detergent and lipid is used to create working solutions of both gamma-secretase (25 Units) and the MBP-C125 substrate (0.05 mg/ml).
Gamma-secretase was then added to a 96-well micro-titre plate and then incubated with various concentrations of inhibitor for 30 minutes at 37° C. MBPC125 substrate was then added to initiate the reaction that would run for two hours at 37° C. The reaction was quenched with the addition of SDS to a final concentration of 0.1% and then 100 μl of the reaction mixture was transferred to a capture ELISA plate and incubated overnight at 4° C. Detection of the cleavage product was performed using a standard sandwich ELISA assay and quantified using a six point standard curve.

With CC[C@@H]1Cc2[nH]ncc2[C@H](CC)N1S(=O)(=O)c1ccc(Cl)cc1 [(4S,6R)-5-(4-chlorophenylsulfonyl)-4,6-diethyl-4,5,6,7-tetrahydro-1H-pyrazolo[4,3-c]pyridine] as the compound, how does the IC50 read?
The IC50 was 50 to 150 nM.

CN(C)C(=O)OC[C@@H]1c2cnn(C(=O)N(C)C)c2CCN1S(=O)(=O)c1ccc(Cl)cc1 [(S)-(5-(4-chlorophenylsulfonyl)-1-(dimethylcarbamoyl)-4,5,6,7-tetrahydro-1H-pyrazolo[4,3-c]pyridin-4-yl)methyl dimethylcarbamate] was tested. Which IC50 did it give?
Its IC50 is 150 to 300 nM.

How did the IC50 turn out when O=S(=O)(c1ccc(Cl)cc1)N1Cc2c[nH]nc2CC1c1ccccc1 (stereo not shown) [5-(4-chlorophenylsulfonyl)-6-phenyl-4,5,6,7-tetrahydro-1H-pyrazolo[4,3-c]pyridine] was run?
The IC50 was < 50 nM.

C[C@H]1Cc2[nH]ncc2[C@H](C)N1S(=O)(=O)c1ccc(Cl)cc1 [(4S,6S)-5-(4-chlorophenylsulfonyl)-4,6-dimethyl-4,5,6,7-tetrahydro-1H-pyrazolo[4,3-c]pyridine] was tested. Which IC50 did it give?
Its IC50 is < 50 nM.
